# Measurements from US10508168B2, “Thermoplastic polymer, method of preparing thermoplastic polymer, and thermoplastic polymer composition including thermoplastic polymer” (LG CHEM, LTD., priority 2015, dated 2019).
# Assay: TGA test of thermal stability of emulsifier fatty acids
# Type: physicochemical
# Settings: for Temperature at which loss of 5% by weight (w/w) occurs / Temperature at which loss of 50% by weight (w/w) occurs: Table 2; for Thermal stability (TGA comparison): result in words
# From the text: The present inventors first performed a process of selecting emulsifier candidates to substitute for a conventionally used fatty acid-based emulsifier so as to change the emulsifier among the aforementioned materials, and then selected an emulsifier having relatively high thermal stability through a boiling point test and a TGA test in accordance with the purpose of the present invention of reducing the amount of gas generated in high-temperature extrusion and injection-molding processes.
# FIG. 2 illustrates TGA test comparison results of hydrogenated ricinoleic acid as a chain-type fatty acid including a functional group according to the present invention, stearic acid as saturated fatty acid not including a branch group or a functional group, and fatty acid (FAD acid: mixture of palmitic acid, oleic acid, and stearic acid) included in a conventionally used fatty acid-based emulsifier.
Structure (SMILES),Temperature at which loss of 5% by weight (w/w) occurs (TGA) [°C],Temperature at which loss of 50% by weight (w/w) occurs (TGA) [°C],Thermal stability (TGA comparison),"Loss amount at 270° C. (TGA, 270° C., Table 1) [% by weight]","Temperature at which loss of 10% by weight occurs (TGA, Table 1) [° ° C.]"
"CCCCCCC(O)CCCCCCCCCCC(=O)O (centres unmarked) [Hydrogenated ricinoleic acid, 12-hydroxy octadecanoic acid]",263,455,superior to stearic acid and fatty acid,,
"CCCCCC[C@@H](O)C/C=C\CCCCCCCC(=O)O [Ricinoleic acid, ricinoleic acid]",,,superior to fatty acid,9,273
"CCCCCCCCCCCCCCCCCC(=O)O [Stearic acid, stearic acid, reference compound]",237,289,,,
